Ends that are not written are not given here.
Test system: Daudi cells
Assay: Cytotoxicity test: NK effector cells (YT) incubated with tumor target cells (Daudi) plus test peptide, LDH release
Format: cell-based
Settings: YT and Daudi cells 1:10, 16 h
Description: For the cytotoxicity measurement, NK cells, which specifically kill tumor cells, as effector cells were incubated with tumor cells as target cells in the presence of the test peptides. The cytotoxicity measurement was performed by measuring the release of lactate dehydrogenase (LDH) according to the standard protocol by a cytotoxicity test kit (Promega, Germany) and in a microwell plate reader. As NK cells (E), YT cells (DSMZ, Germany) were used. As target cells (T), Daudi cells (DSMZ, Germany) were used. YT and Daudi cells were seeded in microwell plates at a ratio of 1:10 and incubated in the presence of 0.3, 3, 30:M test peptide for 16 h.
On the next day, 10:l of lysis buffer each were added to the cells and the cells were incubated for additional 2 h. Subsequently, 5:l of the agent were transferred into a second microwell plate and combined with 50:l of substrate buffer. After a 30 min incubation, the reaction was terminated by 50:l of stop solution and the absorption of the formed MTT color complex was measured in a microwell plate reader.

Row | Sequence | Cytotoxicity (0.3:M test peptide) [%] | Cytotoxicity (3:M test peptide) [%] | Cytotoxicity (30:M test peptide) [%]
1 | APTSSSTKKTQLQLEHFLLDFQMILNGINN [Sequence 2, APTSSSTKKT QLQLEHFLLD FQMILNGINN] | 30 | 80 | 10
2 | APTSSSTKKTQLQLEHFLMKFQMILNGINN [Sequence 3, APTSSSTKKT QLQLEHFLMK FQMILNGINN] | 0 | 20 | 0
3 | APTSSSTKKTQLQLEHLLLKLQMILNGINN [Sequence 1, APTSSSTKKT QLQLEHLLLK LQMILNGINN] | 30 | 30 | 30

Source: patent US20070060508A1, “Binding molecules” (priority 2002, published 2007)
